Measurements reported in article PMC7614683, “A small molecule PI3Kα activator for cardioprotection and neuroregeneration” (Nature, 2023).
Read-outs that look alike come from different tables or passages of the source.

Tests used:
Format in all cases: biochemical
[1] = target: LCK (Homo sapiens, UniProt P06239); assay: SelectScreen kinase profiling, LCK
Procedure: (§1) 133 protein kinases and 7 lipid kinases were counterscreened, with 1938 used at 1 μM, using the Adapta, Lantha and Z-LYTE assays (SelectScreen Kinase Profiling Service; Thermofisher – experimental details of these assays can be found here: https://www.thermofisher.com/uk/en/home/industrial/pharma-biopharma/drug-discovery-development/target-and-lead-identification-and-validation/kinasebiology/kinase-activity-assays.html. The tree represention in KinMap[59] generated courtesy of Cell Signaling Technology, Inc. (www.cellsignal.com). mTORC1 (mTOR/RAPTOR/LST8) protein complex and ATM kinase and substrates were produced as previously described[57],[60]. Screening of 1938 was conducted using SuperSep Phos-Tag 50 μmol/l 100 x 100 x 6.6 mm 17-well (192-18001/199-18011) gels. For ATM assays, 100 nM ATM was incubated for 30 min at 30°C with 5 μM GST-p53 and 1 mM ATP, in the absence or presence of 200 μM 1938 in ATM Kinase Buffer (50 mM HEPES pH 7.5, 100 mM NaCl, 10% glycerol, 2 mM […], 5 mM MgCl2). As a positive control for ATM activation, the same reaction was carried out with 100 nM ATM/5 μM GST-p53/1 mM ATP in the presence of 100 nM Mre11-Rad50-Nbs1 (MRN) complex, a known activator of ATM[61]. For mTORC1 assays, 50 nM mTORC1 complex (mTOR/LST8/RAPTOR) was incubated for 3 h at 30°C with 15 μM 4E-BP1, 10 mM MgCl2 and 250 μM ATP, in the absence or presence of 200 μM 1938. As a ‘positive’ control, a higher concentration (150 nM) of mTORC1 complex (mTOR/LST8/RAPTOR) was incubated for 3 h at 30°C with 15 μM 4E-BP1, 10 mM MgCl2 and 250 μM ATP. Kinase reactions were quenched by addition of SDS-PAGE Loading Buffer (as per manufacturer’s instructions) and freezing at -20°C before being run on the Phos-tag gels at 150 V for 90 min. Gels were then stained using InstantBlue™ Coomassie, and quantified using BioRad Image Lab Software. Kinase assays were carried out in triplicate.

[2] = target: CDK7/cyclin H/MNAT1 (Homo sapiens, UniProt P50613); assay: SelectScreen Adapta
Sequence of CDK7/cyclin H/MNAT1 (P50613 whole entry): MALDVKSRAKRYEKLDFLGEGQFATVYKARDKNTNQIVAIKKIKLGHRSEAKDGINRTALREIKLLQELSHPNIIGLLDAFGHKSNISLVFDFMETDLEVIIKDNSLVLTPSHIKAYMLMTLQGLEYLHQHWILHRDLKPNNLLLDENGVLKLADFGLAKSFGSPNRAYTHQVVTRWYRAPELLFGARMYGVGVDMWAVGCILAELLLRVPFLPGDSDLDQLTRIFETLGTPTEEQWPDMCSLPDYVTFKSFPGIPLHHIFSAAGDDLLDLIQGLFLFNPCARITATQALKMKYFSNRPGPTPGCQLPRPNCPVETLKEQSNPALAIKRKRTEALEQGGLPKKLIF
Sequence of CDK7/cyclin H/MNAT1 (P51946 whole entry partner): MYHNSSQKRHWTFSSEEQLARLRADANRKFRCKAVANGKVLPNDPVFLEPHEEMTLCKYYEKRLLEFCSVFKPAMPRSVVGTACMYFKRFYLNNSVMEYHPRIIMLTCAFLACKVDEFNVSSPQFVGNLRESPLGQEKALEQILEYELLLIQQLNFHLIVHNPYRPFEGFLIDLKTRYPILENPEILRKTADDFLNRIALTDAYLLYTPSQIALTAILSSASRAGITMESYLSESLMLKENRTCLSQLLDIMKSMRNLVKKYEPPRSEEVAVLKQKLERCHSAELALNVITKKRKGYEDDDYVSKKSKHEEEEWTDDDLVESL
Sequence of CDK7/cyclin H/MNAT1 (P51948 whole entry partner): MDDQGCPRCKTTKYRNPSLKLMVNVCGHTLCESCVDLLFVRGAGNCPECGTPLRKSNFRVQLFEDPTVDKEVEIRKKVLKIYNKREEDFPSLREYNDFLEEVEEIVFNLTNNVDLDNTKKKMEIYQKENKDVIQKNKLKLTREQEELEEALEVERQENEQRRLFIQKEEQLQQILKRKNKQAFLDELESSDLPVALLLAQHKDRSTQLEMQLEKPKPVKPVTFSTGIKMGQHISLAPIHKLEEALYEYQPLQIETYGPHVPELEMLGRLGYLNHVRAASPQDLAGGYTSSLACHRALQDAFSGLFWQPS
Procedure: as §1

[3] = target: CDK9/cyclin T1 (Homo sapiens, UniProt P50750); assay: SelectScreen Adapta
Sequence of CDK9/cyclin T1 (P50750 whole entry): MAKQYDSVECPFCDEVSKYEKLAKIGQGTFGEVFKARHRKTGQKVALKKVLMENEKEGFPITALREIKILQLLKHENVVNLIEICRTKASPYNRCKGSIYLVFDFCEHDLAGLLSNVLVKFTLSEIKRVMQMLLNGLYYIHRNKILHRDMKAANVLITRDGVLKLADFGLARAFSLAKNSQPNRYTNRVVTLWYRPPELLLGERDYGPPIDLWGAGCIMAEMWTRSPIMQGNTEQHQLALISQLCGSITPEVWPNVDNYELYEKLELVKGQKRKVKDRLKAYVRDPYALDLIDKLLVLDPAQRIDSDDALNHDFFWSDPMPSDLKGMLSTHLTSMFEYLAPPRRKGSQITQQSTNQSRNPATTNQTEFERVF
Sequence of CDK9/cyclin T1 (O60563 whole entry partner): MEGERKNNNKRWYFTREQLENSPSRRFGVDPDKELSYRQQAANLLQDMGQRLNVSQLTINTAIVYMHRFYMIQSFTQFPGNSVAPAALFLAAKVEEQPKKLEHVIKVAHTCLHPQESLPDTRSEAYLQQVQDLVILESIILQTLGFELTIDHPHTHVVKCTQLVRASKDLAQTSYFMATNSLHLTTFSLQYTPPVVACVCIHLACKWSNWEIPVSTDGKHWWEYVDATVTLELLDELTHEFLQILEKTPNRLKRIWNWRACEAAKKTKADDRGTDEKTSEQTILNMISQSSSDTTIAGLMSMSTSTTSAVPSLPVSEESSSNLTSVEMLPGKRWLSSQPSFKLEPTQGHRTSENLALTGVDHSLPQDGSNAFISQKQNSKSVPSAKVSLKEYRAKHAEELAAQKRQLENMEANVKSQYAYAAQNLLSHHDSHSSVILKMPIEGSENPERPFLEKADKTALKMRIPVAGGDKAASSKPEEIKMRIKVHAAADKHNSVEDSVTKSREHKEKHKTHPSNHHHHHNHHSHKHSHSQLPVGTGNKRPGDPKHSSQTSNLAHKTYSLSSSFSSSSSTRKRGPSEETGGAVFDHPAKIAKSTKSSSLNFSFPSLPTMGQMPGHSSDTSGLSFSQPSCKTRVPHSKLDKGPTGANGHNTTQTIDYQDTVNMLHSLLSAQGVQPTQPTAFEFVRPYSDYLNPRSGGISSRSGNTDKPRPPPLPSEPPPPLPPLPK
Procedure: as §1

[4] = target: IRAK1 (Homo sapiens, UniProt P51617); assay: SelectScreen Adapta
Sequence of IRAK1 (P51617 whole entry): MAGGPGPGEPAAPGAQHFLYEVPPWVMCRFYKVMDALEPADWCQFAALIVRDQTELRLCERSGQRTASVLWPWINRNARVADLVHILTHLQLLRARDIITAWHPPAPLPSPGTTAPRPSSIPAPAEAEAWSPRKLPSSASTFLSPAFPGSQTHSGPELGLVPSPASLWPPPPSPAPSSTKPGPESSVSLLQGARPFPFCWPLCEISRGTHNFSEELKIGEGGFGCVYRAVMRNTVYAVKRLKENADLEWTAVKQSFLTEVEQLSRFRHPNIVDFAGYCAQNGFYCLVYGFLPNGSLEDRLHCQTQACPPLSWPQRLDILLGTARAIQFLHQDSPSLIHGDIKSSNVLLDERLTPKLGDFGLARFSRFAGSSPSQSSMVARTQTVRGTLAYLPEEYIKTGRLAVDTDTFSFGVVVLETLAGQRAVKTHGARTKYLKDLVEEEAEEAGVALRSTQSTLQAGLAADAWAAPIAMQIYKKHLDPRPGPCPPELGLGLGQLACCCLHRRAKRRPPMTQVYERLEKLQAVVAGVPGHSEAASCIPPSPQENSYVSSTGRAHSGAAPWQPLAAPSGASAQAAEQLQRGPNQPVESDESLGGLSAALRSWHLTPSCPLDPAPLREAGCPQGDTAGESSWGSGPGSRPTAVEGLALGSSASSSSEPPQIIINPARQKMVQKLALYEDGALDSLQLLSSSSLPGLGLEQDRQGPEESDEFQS
Procedure: as §1

[5] = target: PIK3C3 (hVPS34) (Homo sapiens, UniProt Q8NEB9); assay: SelectScreen Adapta
Sequence of PIK3C3 (hVPS34) (Q8NEB9 whole entry): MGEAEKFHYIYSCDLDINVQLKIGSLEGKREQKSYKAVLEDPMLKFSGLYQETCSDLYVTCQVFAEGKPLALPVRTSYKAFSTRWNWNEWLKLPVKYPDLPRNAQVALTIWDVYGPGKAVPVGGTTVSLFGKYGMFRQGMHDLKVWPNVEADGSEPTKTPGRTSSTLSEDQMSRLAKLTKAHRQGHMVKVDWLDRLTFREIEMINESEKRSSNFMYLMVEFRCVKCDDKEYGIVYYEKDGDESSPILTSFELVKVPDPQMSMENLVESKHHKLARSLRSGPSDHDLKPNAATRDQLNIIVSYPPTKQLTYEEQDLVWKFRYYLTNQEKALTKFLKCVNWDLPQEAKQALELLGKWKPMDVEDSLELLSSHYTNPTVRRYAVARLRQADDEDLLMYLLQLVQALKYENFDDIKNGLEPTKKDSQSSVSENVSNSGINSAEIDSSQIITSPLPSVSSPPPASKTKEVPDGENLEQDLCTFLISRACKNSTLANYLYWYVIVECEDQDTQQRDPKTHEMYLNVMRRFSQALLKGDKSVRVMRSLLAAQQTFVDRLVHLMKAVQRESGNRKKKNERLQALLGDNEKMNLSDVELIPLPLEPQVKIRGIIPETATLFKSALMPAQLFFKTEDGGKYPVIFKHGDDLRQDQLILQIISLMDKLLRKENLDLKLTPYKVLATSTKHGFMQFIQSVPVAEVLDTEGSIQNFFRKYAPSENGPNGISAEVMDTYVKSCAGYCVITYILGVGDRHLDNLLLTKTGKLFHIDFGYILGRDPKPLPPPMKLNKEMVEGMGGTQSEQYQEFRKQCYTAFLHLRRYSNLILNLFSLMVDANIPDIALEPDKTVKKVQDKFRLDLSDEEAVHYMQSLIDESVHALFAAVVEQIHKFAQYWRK
Procedure: as §1

[6] = target: T1, ATM (Homo sapiens, UniProt Q13315); assay: ATM in vitro kinase assay (Phos-tag gel); conditions: 200 μM 1938
T1 construct: made in house
Procedure: as §1, with “For mTORC1 assays, 50 nM mTORC1 complex (mTOR/LST8/RAPTOR) was incubated for 3 h at 30°C with 15 μM 4E-BP1, 10 mM MgCl2 and 250 μM ATP, in the absence or presence of 200 μM 1938. As a ‘positive’ control, a higher concentration (150 nM) of mTORC1 complex (mTOR/LST8/RAPTOR) was incubated for 3 h at 30°C with 15 μM 4E-BP1, 10 mM MgCl2 and 250 μM ATP. Kinase reactions were quenched by addition of SDS-PAGE Loading Buffer (as per manufacturer’s instructions) and freezing at -20°C before being run on the Phos-tag gels at 150 V for 90 min.” left out, “Kinase assays were carried out in triplicate.” left out

Sequence of LCK (P06239 whole entry): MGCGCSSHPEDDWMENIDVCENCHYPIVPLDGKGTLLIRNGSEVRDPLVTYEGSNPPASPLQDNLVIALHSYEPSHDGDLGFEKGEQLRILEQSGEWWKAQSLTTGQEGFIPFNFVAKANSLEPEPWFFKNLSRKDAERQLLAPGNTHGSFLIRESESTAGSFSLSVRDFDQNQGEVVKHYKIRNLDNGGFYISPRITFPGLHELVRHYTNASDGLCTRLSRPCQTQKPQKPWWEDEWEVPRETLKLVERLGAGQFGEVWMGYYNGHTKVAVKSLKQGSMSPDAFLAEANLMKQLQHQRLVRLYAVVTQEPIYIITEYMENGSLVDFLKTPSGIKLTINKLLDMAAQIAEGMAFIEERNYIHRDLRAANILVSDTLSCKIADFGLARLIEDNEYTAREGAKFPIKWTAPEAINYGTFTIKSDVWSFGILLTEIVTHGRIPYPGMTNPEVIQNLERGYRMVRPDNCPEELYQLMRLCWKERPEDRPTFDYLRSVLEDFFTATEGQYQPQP

For CCN1CCN(c2ccc(Nc3cc(Nc4cccc5c4N(C(C)=O)CC5)ccn3)cc2)CC1 [Compound 1938], the inhibition at 1 µM ([1]; read-out: % Inhibition Point 1) was 60%, the inhibition at 1 µM ([1]; read-out: % Inhibition Point 2) was 57% and the inhibition at 1 µM ([1]; read-out: % Inhibition mean) was 58%. The inhibition at 1 µM ([2]; read-out: % Inhibition Point 1) was -6.51%, the inhibition at 1 µM ([2]; read-out: % Inhibition Point 2) was 4% and the inhibition at 1 µM ([2]; read-out: % Inhibition mean) was -1.27%. For the same compound, the inhibition at 1 µM ([3]; read-out: % Inhibition Point 1) was 10%, the inhibition at 1 µM ([3]; read-out: % Inhibition Point 2) was 2% and the inhibition at 1 µM ([3]; read-out: % Inhibition mean) was 6%. It also gave an inhibition at 1 µM ([4]; read-out: % Inhibition Point 1) of 29%, an inhibition at 1 µM ([4]; read-out: % Inhibition Point 2) of 20% and an inhibition at 1 µM ([4]; read-out: % Inhibition mean) of 25%. It also gave an inhibition at 1 µM ([5]; read-out: % Inhibition Point 1) of 3.28%, an inhibition at 1 µM ([5]; read-out: % Inhibition Point 2) of 7.6% and an inhibition at 1 µM ([5]; read-out: % Inhibition mean) of 5.44%. The “effect on ATM activity” value [6] was “did not affect the activity”.
